Molecular target: T1, Dual specificity protein phosphatase 1 (Homo sapiens, UniProt P28562)
T1 sequence (P28562 whole entry): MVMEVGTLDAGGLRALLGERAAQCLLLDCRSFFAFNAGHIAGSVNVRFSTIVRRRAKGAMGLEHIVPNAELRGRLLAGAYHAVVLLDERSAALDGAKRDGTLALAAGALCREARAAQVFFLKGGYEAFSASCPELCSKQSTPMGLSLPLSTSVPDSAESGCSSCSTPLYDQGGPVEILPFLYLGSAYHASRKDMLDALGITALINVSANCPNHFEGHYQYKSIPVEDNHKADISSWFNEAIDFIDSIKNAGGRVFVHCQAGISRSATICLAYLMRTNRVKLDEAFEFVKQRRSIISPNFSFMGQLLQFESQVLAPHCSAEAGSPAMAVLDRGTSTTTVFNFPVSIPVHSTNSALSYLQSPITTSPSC
Experiment: DTT effect on MKP-1 inhibitor potency – biochemical, DTT added, probe assessment, dose response (AID 558)

Cc1ccc(C)n1-c1cccc(C(=O)O)c1
IC50: 16.9 µM

O=C(Nc1ccc2nc(-c3ccco3)c(-c3ccco3)nc2c1)N1CCCCCC1
IC50: 24.1 µM

CCCCCC#CCC#CCC#CCC#CCCCC(=O)O
IC50: 13.1 µM

Cn1ncnc2c(=O)n(C)c(=O)nc1-2
IC50: > 50 µM

[O-]/[N+](=C\c1ccncc1)c1ccccc1
IC50: 46.6 µM

O=C1C=Cc2ccccc2C1=O [1,2-dihydronaphthalene-1,2-dione]
IC50: 22.5 µM

Cc1nc2cc(-c3cccc(F)c3)nn2c(C)c1CCC(=O)N1CCC2(CC1)OCCO2 [1-(1,4-dioxa-8-azaspiro[4.5]decan-8-yl)-3-[2-(3-fluorophenyl)-5,7-dimethyl-6-pyrazolo[1,5-a]pyrimidinyl]-1-propanone]
IC50: > 50 µM

CCn1nc(-c2ccccc2)nc2c(=O)n(C)c(=O)nc1-2 [1-Ethyl-6-methyl-3-phenyl-1H-pyrimido[5,4-e][1,2,4]triazine-5,7-dione]
IC50: > 50 µM

Cc1cc(C)n2c(SCC(=O)N3CCN(S(=O)(=O)c4ccc(Cl)cc4)CC3)nnc2n1 [1-[4-(4-chlorophenyl)sulfonyl-1-piperazinyl]-2-[(5,7-dimethyl-[1,2,4]triazolo[4,3-a]pyrimidin-3-yl)thio]ethanone]
IC50: 49.9 µM

[O-]/[N+](=C\c1ccc(OC(F)F)cc1)c1ccccc1 [1-[4-(difluoromethoxy)phenyl]-N-phenylmethanimine oxide]
IC50: > 50 µM

CCCCn1c(SCC(=O)c2ccc(OC)cc2OC)nc2cc(S(N)(=O)=O)ccc21 [1-butyl-2-[2-(2,4-dimethoxyphenyl)-2-oxidanylidene-ethyl]sulfanyl-benzimidazole-5-sulfonamide]
IC50: 42.1 µM

CCn1nc(-c2cccs2)nc2c(=O)n(C)c(=O)nc1-2 [1-ethyl-6-methyl-3-thiophen-2-yl-pyrimido[5,4-e][1,2,4]triazine-5,7-dione]
IC50: > 50 µM

O=C(Nc1ccccc1)c1ccc2nc(-c3ccco3)c(-c3ccco3)nc2c1 [2,3-di-2-furyl-N-phenyl-6-quinoxalinecarboxamide]
IC50: 32 µM

CC(C)Cn1c(N)c(C(=O)COC(=O)c2cc(-c3ccco3)nc3ccccc23)c(=O)n(C)c1=O [2-(2-furanyl)-4-quinolinecarboxylic acid [2-[4-amino-1-methyl-3-(2-methylpropyl)-2,6-dioxo-5-pyrimidinyl]-2-oxoethyl] ester]
IC50: 25.5 µM

CCOc1ccc(-c2cc3nc(C4CCN(C(=O)OC(C)(C)C)CC4)c(C(=O)O)cn3n2)cc1 [2-(4-ethoxyphenyl)-5-[1-[(2-methylpropan-2-yl)oxy-oxomethyl]-4-piperidinyl]-6-pyrazolo[1,5-a]pyrimidinecarboxylic acid]
IC50: 27.7 µM

COc1ccc(-c2cc3nc(C4CCN(C(=O)OC(C)(C)C)CC4)c(C(=O)O)cn3n2)cc1 [2-(4-methoxyphenyl)-5-[1-[(2-methylpropan-2-yl)oxy-oxomethyl]-4-piperidinyl]-6-pyrazolo[1,5-a]pyrimidinecarboxylic acid]
IC50: 36.3 µM

Cc1cccc(NC(=O)c2cc(NC(=O)C3CCCCC3C(=O)O)ccc2N2CCCCC2)c1 (configuration not stated) [2-({[3-{[(3-methylphenyl)amino]carbonyl}-4-(1-piperidinyl)phenyl]amino}carbonyl)cyclohexanecarboxylic acid]
IC50: > 50 µM

Cc1ccc(/C=C/C2=Cc3c(sc(NC(=O)CSc4nnc(N)[nH]4)c3C#N)C(C)(C)C2)o1 [2-[(5-azanyl-1H-1,2,4-triazol-3-yl)sulfanyl]-N-[3-cyano-7,7-dimethyl-5-[(E)-2-(5-methylfuran-2-yl)ethenyl]-6H-1-benzothiophen-2-yl]ethanamide]
IC50: 19.8 µM

CCCCNC(=O)c1c(N)n(CCCOC)c2nc3ccccc3nc12 [2-amino-N-butyl-1-(3-methoxypropyl)-3-pyrrolo[3,2-b]quinoxalinecarboxamide]
IC50: > 50 µM

N#Cc1c(N)sc(=S)c2c1CCN(Cc1ccccc1)C2 [3-Amino-7-benzyl-1-thioxo-5,6,7,8-tetrahydro-1H-thiopyrano[3,4-c]pyridine-4-carbonitrile]
IC50: > 50 µM

O=C1C=C(NCc2ccc(Cl)c(Cl)c2)CC1 [3-[(3,4-dichlorobenzyl)amino]cyclopent-2-en-1-one]
IC50: > 50 µM

CCCSc1nnc(NC(=O)c2sc3nc(-c4cccs4)ccc3c2N)s1 [3-amino-N-(5-propylsulfanyl-1,3,4-thiadiazol-2-yl)-6-thiophen-2-ylthieno[2,3-b]pyridine-2-carboxamide]
IC50: 25.7 µM

O=C1Nc2ccccc2SC(c2ccccc2)C1O (configuration not stated) [3-hydroxy-2-phenyl-2,3-dihydro-1,5-benzothiazepin-4(5H)-one]
IC50: 35.5 µM

CC(C)(C)N1C(=O)Cc2c1nc(N)c1c(N)nc(N3CCCCC3CO)c(C#N)c21 (configuration not stated) [5,6-bis(azanyl)-3-tert-butyl-8-[2-(hydroxymethyl)piperidin-1-yl]-2-oxidanylidene-1H-pyrrolo[2,3-c][2,7]naphthyridine-9-carbonitrile]
IC50: > 50 µM

COc1cc(/C=C(/C#N)c2ccc(F)cc2)ccc1OCc1ccc(C(=O)O)o1 [5-({4-[2-cyano-2-(4-fluorophenyl)vinyl]-2-methoxyphenoxy}methyl)-2-furoic acid]
IC50: > 50 µM

COc1ccc(Br)cc1C=c1sc2nc(-c3ccco3)nn2c1=O [5-[(5-bromanyl-2-methoxy-phenyl)methylidene]-2-(furan-2-yl)-[1,3]thiazolo[3,2-b][1,2,4]triazol-6-one]
IC50: 17.2 µM

CCOc1cc(/C=C(/C#N)c2ccc(F)cc2)ccc1OCc1ccc(C(=O)O)o1 [5-[[4-[(E)-2-cyano-2-(4-fluorophenyl)ethenyl]-2-ethoxyphenoxy]methyl]furan-2-carboxylic acid]
IC50: 41.8 µM

N#Cc1c(NC(=O)c2ccc(Br)o2)n(-c2ccccc2)c2nc3ccccc3nc12 [5-bromanyl-N-(3-cyano-1-phenyl-pyrrolo[3,2-b]quinoxalin-2-yl)furan-2-carboxamide]
IC50: > 50 µM

Cc1cccc(N2CCN(C(=O)Cc3c(C(=O)O)[nH]c4ccc(Cl)cc34)CC2)c1C [5-chloranyl-3-[2-[4-(2,3-dimethylphenyl)piperazin-1-yl]-2-oxidanylidene-ethyl]-1H-indole-2-carboxylic acid]
IC50: 46.8 µM

CCCCCNC(=O)c1ccc2c(=O)[nH]c3c(C(=O)NCC4CCCO4)sc(=S)n3c2c1 (configuration not stated) [5-oxo-N3-(2-oxolanylmethyl)-N8-pentyl-1-sulfanylidene-4H-thiazolo[3,4-a]quinazoline-3,8-dicarboxamide]
IC50: 36.7 µM

Cc1nc2c(C(=O)NCCC3=CCCCC3)c[nH]n2c(=O)c1Cl [6-chloro-N-(2-cyclohex-1-en-1-ylethyl)-7-hydroxy-5-methylpyrazolo[1,5-a]pyrimidine-3-carboxamide]
IC50: 49.9 µM

O=C(c1cccs1)c1no[n+]([O-])c1C(=O)c1cccs1 [(5-oxidanidyl-4-thiophen-2-ylcarbonyl-1,2,5-oxadiazol-5-ium-3-yl)-thiophen-2-yl-methanone]
IC50: 6.96 µM

Nc1c(N2CCCC2)cc(Cl)c2nonc12 [(7-chloro-5-pyrrolidino-benzofurazan-4-yl)amine]
IC50: > 50 µM

[O-]/[N+](=C/c1ccc(F)cc1)c1ccccc1 [(E)-(4-fluorobenzylidene)(phenyl)azane oxide]
IC50: > 50 µM

CC1=C(/C=C/C(C)=C/C=C/C(C)=C/C(=O)O)C(C)(C)CCC1 [ALL-TRANS-RETINOIC ACID]
IC50: 48.6 µM

CC(=O)[C@@H]1[C@@H]2C(=O)N(c3ccc(F)c(Cl)c3)C(=O)[C@@H]2C2c3ccccc3C=CN21 (some centres not stated) [MLS000040594]
IC50: > 50 µM

COCCCn1c(N)c(C(=O)NCCC(C)C)c2nc3ccccc3nc21 [MLS000041744]
IC50: > 50 µM

CCn1c(SCC(=O)Nc2ccc3c(c2)c2ccccc2n3CC)nnc1-c1ccco1 [MLS000050867]
IC50: 21.1 µM

O=C1C(=C2C(=O)c3ccccc3C2=O)Nc2ccccc21 [MLS000071738]
IC50: > 50 µM

COc1ccc(-n2c(NC(=O)c3ccco3)c(C#N)c3nc4ccccc4nc32)cc1 [MLS000079925]
IC50: > 50 µM

COc1ccc(Cn2c(C)nc3c(c2=O)c2nc4ccccc4nc2n3Cc2ccco2)cc1 [MLS000079944]
IC50: 22 µM

Cc1ccc(-c2csc(NC(=O)c3ccno3)n2)cc1 [MLS000081820]
IC50: 49.8 µM

CC(C)Sc1nc2sc3c(c2c2nnc(SCC(=O)NCc4ccco4)n12)CCCC3 [MLS000082957]
IC50: 22.7 µM

Nc1nc2c(s1)CCc1c-2cnn1-c1ccccc1 [MLS000085948]
IC50: > 50 µM

Cc1cc(NC(=O)c2ccc(S(=O)(=O)N3CCCC3)cc2)nc2c1c(=O)oc1ccccc12 [MLS000091355]
IC50: 26.1 µM

FC(F)(F)c1ccc(N2CCOCC2)c(Nc2nc3ccccc3n3cnnc23)c1 [MLS000093276]
IC50: > 50 µM

COC(=O)c1ccccc1NC(=O)CN1C(=O)C2CCCN2c2ncc(Cl)cc21 (configuration not stated) [MLS000094302]
IC50: > 50 µM

CCc1ccc(NC(=O)CSc2nc3ccccc3c(=O)n2CCN2CCOCC2)cc1 [MLS000095236]
IC50: > 50 µM

Cc1c(N=c2c(=O)c3ccccc3c2=O)c(=O)n(-c2ccccc2)n1C [MLS000105950]
IC50: > 50 µM

CCOc1ccc2noc3c2c1C(=O)c1ccccc1-3 [MLS000106837]
IC50: 30.2 µM

COc1ccc2noc3c2c1C(=O)c1ccccc1-3 [MLS000106874]
IC50: 14.3 µM

CCOC(=O)c1ccc2c(c1)C1C=CCC1C(C(=O)O)N2 (configuration not stated) [MLS-0025126.0001]
IC50: 32.7 µM

O=C(NC1(O)C(=O)c2ccccc2C1=O)c1ccccc1 [N-(2-hydroxy-1,3-dioxo-2-indenyl)benzamide]
IC50: > 50 µM

O=C(OC1CCCCC1)c1ccc2c(c1)C1C=CCC1C(C(=O)O)N2 (configuration not stated) [SMR000019385]
IC50: 17.5 µM

O=C1c2ccccc2-c2onc3ccc(NCCCn4ccnc4)c1c23 [SMR000044769]
IC50: 35.2 µM

CCCCn1c(NC(=O)c2ccccc2)c(C#N)c2nc3ccccc3nc21 [SMR000060333]
IC50: 32.4 µM

N#Cc1c(N2CCCC2)nc(N)c2c(N)nc(N3CCCC3)cc12 [SMR000061605]
IC50: > 50 µM
